Assay results as given in patent US7132547B2, “Preventives/remedies for urinary disturbance” (priority 2001, dated 2006).

Tested on: Hartley male guinea pigs loaded with phenylephrine
Experiment: Pressure Flow Study using guinea pigs loaded with phenylephrine
Assay type: in vivo, guinea pig
Conditions: i.v., tamsulosin 0.01 mg/kg, Example 20 0.1 mg/kg, urethane-anesthetized, phenylephrine 3 μg/animal/min
Experimental: Hartley male guinea pigs (Slc) weighing 300 to 350 g was anesthetized with urethane (1.2 g/kg, i.p.), and a median was incised to expose bladder. Two polyethylene tubes were inserted into bladder, and one of them was used for injecting a physiological saline and the other was used for measuring a bladder internal pressure. A cannulae was inserted into a left femoral vein, and phenylephrine was continuously administered intravenously at 3 μg/animal/min until the completion of experiment. A physiological saline was injected into bladder at a rate of 0.3 mL/min, and injection was stopped when urination was confirmed. The urinated urine weight was measured with an electron balance (HX-400, A & D) at real time. Analogue data of bladder internal pressure and urine weight were inputted into an AD transducer (MP-100, BIOPAC Systems), and digital signals were analyzed with exclusive analyzing software (AcqKnowledge 3.5.3, BIOPAC Systems). The sampling rate of data was 10 Hz, and data of urination amount and urine flow rate were subjected to a lowcut filter at 0.5 Hz in order to remove noises. The value of urine weight was differentiated to calculate urine flow rate (Q), and maximum urine flow rate (Qmax) at urination and bladder internal pressure (Pves (Qmax)) at maximum urine flow were calculated. The urination weight 1 g was converted into 1 mL to calculate the urination amount, and divided by bladder volume to obtain voiding efficiency (Voiding Efficiency). Example compound was dissolved in DMSO, and the solution was intravenously administered at 0.5 mL/kg. 10 minutes after administration of test compound, urinary reflection was recorded again, and change in urine flow rate (ΔQmax), and change in bladder internal pressure (ΔPves(Qmax)) and voiding efficiency were assessed. The change in urine flow rate (ΔQmax) and change in bladder internal pressure (ΔPves. (Qmax)) were an amount of change (Δ value) obtained by subtracting each value before administration of test compound from each value after administration, and voiding efficiency was assessed by a relative value (% of pre-value) of after administration of test compound relative to before administration. Tamsulosin which is a known α1 receptor antagonist was measured similarly. A significance diffenence was tested by a Dunnett test by comparing with each value of a vehicle (DMSO)-administered group.

[1] = 10 minutes after administration minus before

COc1ccccc1CCNCCCCCC(=O)c1cc2c3c(c1)CCN3C(=O)CC2.Cl [Example 20, 8-(6-[[2-(2-Methoxyphenyl)ethyl]amino]hexanoyl]-1,2,5,6-tetrahydro-4H-pyrrolo[3,2,1-ij]quinolin-4-one hydrochloride]
change in bladder internal pressure (ΔPves(Qmax)) [1]: −1.73 ± 1.54 cmH2O
change in maximum urine flow rate (ΔQmax) [1]: 0.060 ± 0.016 mL/s
voiding efficiency (% of pre-value) (after administration relative to before): 150.1 ± 20.1 %
